Data as given in patent US20250388597A1, “BIFUNCTIONAL PHOTOCROSSLINKING PROBES FOR COVALENT CAPTURE OF PROTEIN-NUCLEIC ACID COMPLEXES IN CELLS” (UNIVERSITY OF SOUTHERN CALIFORNIA, priority 2022, published 2025).

Target: T1, MEF2A/DNA complex (Homo sapiens, UniProt Q02078)
T1 construct: human MEF2A DBD (residues 2-95); made in house
T1 sequence (Q02078 2-95): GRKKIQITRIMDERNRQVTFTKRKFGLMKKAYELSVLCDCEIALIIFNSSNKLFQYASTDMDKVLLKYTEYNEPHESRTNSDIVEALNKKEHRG
Assay: In vitro photo-crosslinking of assembled MEF2/DNA complex, read on denaturing SDS/urea gel or agarose gel
Format: biochemical
Details: for formation of covalent MEF2/DNA crosslinked complex: probe + UV, denaturing gel
Source text: In vitro assays have confirmed the success and the efficiency of the demo probe (AMT-LC-SDA) in crosslinking double strand DNA of various contents and DNA-binding protein human myocyte enhancer factor 2A (MEF2A) (1-95 aa) (FIG. 5C-FIG. 5E). The solid crosslinking is confirmed for the probe with UV photo crosslinking conditions by denaturing or digestive approaches such as running with 8.3 M urea gel, SDS gel, combined with sample with overnight digestion of proteinase K at 65 Celsius and denatured at high temperature of 95 Celsius with SDS loading dye. […] Under these harsh evaluation conditions, the protein got digested on the crosslinking complex thoroughly, yet the remaining crosslinked amino acids residuals still have made the DNA to be in a larger size and shifted clearly compared to other controls, which is indicated by the bold shaped arrow. Agarose gel was also used for its bigger pore size to estimate the crosslinking efficiency (UV 2 hrs), estimated by the amount of the left free DNA, our probe has reached around 30-60% efficiency (FIG. 5E), which is much higher than the UV-initiated protein DNA crosslinking without the use of a probe (10-20%) as reported in Nature Communications, volume 11, Article number: 3019 (2020). […] This further supports the idea of applying this probe for replacement of formaldehyde, it crosslinks the protein only within the proximity of nucleic acids, thereby largely reducing the random protein-protein crosslinking noise and helps to preserve the native state of protein epitopes.
The BFPX probe 4AMT-LC-SDA was synthesized with good yield by the NHS-amine chemistry using psoralen and diazirine derivatives (FIG. 5A, FIG. 5B). To test its photo crosslinking ability, human transcription factor MEF2A (the MADS-box/MEF2 domain) and double strand DNA containing a MEF2 binding site were used. We first used electrophoresis mobility shift assay (EMSA) to validate the activity of the purified recombinant MEF2A DNA-binding domain. After finding out the optimal protein to DNA ratio, the in vitro assembled MEF2/DNA complex was then subject to photocrosslinking in the presence or absence of the 4AMT-LC-SDA probe with or without UV illumination. Multiple other control experiments were carried out in parallel to test the specificity of photocrosslinking between the DNA and MEF2. Specifically, parameters such as protein/DNA amounts (1:[…]), ratio, UV time (10 m to 4 hrs), wavelength (320 to 360 nm), LV source (mercury long lamp, LED) and their distance to the reaction mixture have been optimized along the course. The MEF2 Protein and DNA were incubated first to mimic an in vivo binding mode and stoichiometry, and then the mixture was incubated with our 4AMT-LC-SDA probe to undergo UV illumination. The results were evaluated by running denaturing gels (SDS in FIG. 5D, or Urea in FIG. 5C) against the high temperature denatured reaction mixtures and checking the respective protein (silver stain) or DNA (FAM label) signals. To further rule out any other possible false positiveness during loading, proteinase K digestion was applied to all the samples including the negative controls with SDS at 65 degrees.

Structure (SMILES)	low probe concentration at which a significant amount of crosslinked protein complex was observed (MEF2/DNA, FIG. 7 lane 7, UV 365 nm) [µM]	crosslinking efficiency (percentage of native protein-DNA complex being covalently crosslinked) (MEF2/DNA, FIG. 7 lane 5 (12.5 μM probe) vs lanes 1-3, free DNA FAM signal, UV 365 nm)	UV illumination time at which crosslinked complex was visible (MEF2/DNA, probe 100 μM) [s]	UV illumination time at which crosslinking reached plateau (MEF2/DNA, probe 100 μM, plateau around 100 seconds and 5 min time points)	formation of covalent MEF2/DNA crosslinked complex	crosslinking efficiency based on the DNA signal (MEF2/DNA, FIG. 8C lane 3 (10 μM probe) vs lane 1)
C#CCCC1(CCNC(=O)CCCOc2c3occc3cc3ccc(=O)oc23)N=N1 [SPB-AAD, N-(2-(3-(but-3-yn-1-yl)-3H-diazirin-3-yl)ethyl)-4-((7-oxo-7H-furo[3,2-g]chromen-9-yl)oxy)butanamide]	0.125	80-90%	3	around 100 seconds	formation of complexes that run as larger molecular species than both free protein and DNA	–
C#CCCC1(CCNC(=O)CCOCCOCCOCCC(=O)NCCNC(=O)CCCOc2c3occc3cc3ccc(=O)oc23)N=N1 [SPB-PEG3-AAD]	–	–	–	–	highly efficient crosslinking	more than 90%
